The text below walks through data of patent US20260200977A1, “PEPTIDE HAVING ACTIVITY OF IMPROVING STATE OF SKIN, AND USE THEREOF” (CAREGEN CO., LTD., priority 2022, published 2026).

For assay [1], the system named is aquaporin-3 (AQP3). Briefly: Expression of skin barrier factor by RT-PCR in HaCaT cells. The conditions noted are these: 10 μM, 50 μM or 1000 μM peptide, 24 hours, FIG. 4, FIG. 5B. It is filed as cell-based. As to the method:
(§1) In this example, the aim was to confirm the effect of the peptides according to an example on strengthening the skin barrier, by evaluating the expression levels of sirtuin-1 (SIRT-1) or aquaporin-3 (AQP3).
(§2) Specifically, HaCaT cells were seeded in a 6-well plate at a density of 3×10^5 cells/well and cultured for 24 hours. Next, the cells were washed once with serum-free DMEM media, and 10 μM, 50 μM or 1000 μM of the peptide consisting of the amino acid sequence of SEQ ID NO: 1 was dispensed into 1 mL of the serum-free media, and cultured in a CO2 incubator at 37° C. for 24 hours. Next, the culture was washed twice with PBS, and RNA was isolated from the culture using easy blue (iNtRON, Cat. No.: 17061, Korea). Next, using an RT kit (Enzynomics, Cat. NO.: RT200, Korea), the isolated RNA was reverse transcribed to synthesize the respective cDNA. Next, using the synthesized 1 μg cDNA, primers for SIRT-1 or AQP3, and a PCR kit (Enzynomics, Cat. No.: P581T, Korea), polymerase chain reaction (PCR) was performed. Meanwhile, in this example, an untreated group was used as a control group, and a group to which EGF was added was used as a positive control group, the nucleotide sequences of the primers used in this example are shown in Table 3 below.

In assay [2] the test system is sirtuin-1 (SIRT-1). Described as above. The class given is cell-based. To be noted: 10 μM, 50 μM or 1000 μM peptide, 24 hours, FIG. 4, FIG. 5A. Here is the method:
as §1, §2

Assay [3] relates to NIH3T3 cells. Briefly: Proliferation of skin cells, MTT (change in cell survival rate). It is filed as cell-based, mouse. To be noted: 50 μM or 100 μM peptide, serum-free media, 72 hours, MTT absorbance 540 nm, FIG. 1. Here is the method: In this example, the aim was to confirm the effect of a peptide according to an example on proliferation of skin cells, by evaluating changes in survival rate of NIH3T3 cells, which are mouse fibroblasts.
Specifically, NIH3T3 cells were seeded in a […] at a density of 1×10^4 cells/well and cultured for 24 hours. Next, the cells were washed once with serum-free DMEM media, and 50 μM or 100 μM of a peptide consisting of an amino acid sequence of SEQ ID NO: 1 was dispensed into 200 μL of the serum-free media, and cultured in a CO2 incubator at 37° C. for 72 hours. Next, the culture was washed twice with PBS, and MTT solution was dispensed into each well at a concentration of 0.5 mg/ml. Next, it was shaded from light and cultured in a CO2 incubator at 37° C. for 4 hours, and the absorbance at 540 nm was measured using a microplate reader (Molecular Devices, USA).

Assay [4] has as its system collagen type 1 (CoI1a1). Briefly: Expression of extracellular matrix component by RT-PCR in NIH3T3 cells. To be noted: 10 μM, 50 μM or 1000 μM peptide, 24 hours, FIG. 2, FIG. 3A. It is filed as cell-based, mouse. Here is the method:
(§3) In this example, the aim was to confirm the effect of the peptide according to an example on improving endogenous skin aging, including improvement of wrinkles and enhancement of elasticity, etc., by evaluating the expression levels of collagen type 1 (CoI1a1), fibronectin, elastin, and hyaluronic acid, which are known components of the dermis.
(§4) Specifically, NIH3T3 cells were seeded in a 6-well plate at a density of 3×10^5 cells/well and cultured for 24 hours. Next, the cells were washed once with serum-free DMEM media, and 10 μM, 50 μM or 1000 μM of a peptide consisting of an amino acid sequence of SEQ ID NO: 1 was dispensed into 1 mL of the serum-free media, and cultured in a CO2 incubator at 37° C. for 24 hours. Next, the culture was washed twice with PBS, and RNA was isolated from the culture using easy blue (iNtRON, Cat. No.: 17061, Korea). Next, using an RT kit (Enzynomics, Cat. NO.: RT200, Korea), the isolated RNA was reverse transcribed to synthesize the respective cDNA. Next, using the synthesized 1 μg cDNA, primers for CoI1a1, fibronectin, or elastin, and a PCR kit (Enzynomics, Cat. No.: P581T, Korea), polymerase chain reaction (PCR) was performed. Meanwhile, in this example, an untreated group was used as a control group, and a group to which IGF was added was used as a positive control group, the nucleotide sequences of the primers used in this example are shown in Table 2 below.

In assay [5] the test system is fibronectin. The description is as above. It is filed as cell-based, mouse. To be noted: 10 μM, 50 μM or 1000 μM peptide, 24 hours, FIG. 2, FIG. 3B. Here is the method:
as §3, §4

For assay [6], the system named is elastin. The assay is described as above. It is filed as cell-based, mouse. The conditions noted are these: 10 μM, 50 μM or 1000 μM peptide, 24 hours, FIG. 2, FIG. 3C. As to the method:
as §3, §4

Assay [7] relates to HaCaT cells. Kind of assay: Reactive oxygen species increased by ultraviolet irradiation, DCFH-DA flow cytometry. To be noted: 50 μM or 1000 μM peptide, 15 mJ/cm^2 ultraviolet rays, 24 hours, FACS, FIG. 6. It is filed as cell-based. As to the method:
In this example, the aim was to confirm the effect of the peptide according to an embodiment on the antioxidant effect in damaged skin, by evaluating the change in the level of reactive oxygen species in skin cells increased by ultraviolet irradiation.
Specifically, HaCaT cells were seeded in a 6-well plate at a density of 5×10^5 cells/well and cultured for 24 hours. Next, the cells were washed once with serum-free DMEM media, and 50 μM or 1000 μM of a peptide consisting of an amino acid sequence of SEQ ID NO: 1 was dispensed into 1 mL of the serum-free media, and cultured in a CO2 incubator at 37° C. for […]. Next, the above culture was transferred to an e-tube, mixed with 1 ml of PBS, and dispensed into a well plate. Next, using a UV irradiator (VILBER LOURMAT, Cat No.: 3102-BSU, France), 15 mJ/cm^2 ultraviolet rays were irradiated to HaCaT cells. Next, the PBS in the well plate was removed, 900 μL of the culture medium in which the peptides were dispensed was added, and the plate was cultured in a CO2 incubator at 37° C. for 24 hours. Next, the culture was treated with DCFH-DA (2′,7′-dichlorofluorescin diacetate), wrapped in foil, and cultured in a CO2 incubator at 37° C. for 30 minutes. […] After washing the centrifuged cells with PBS, fluorescence values were measured through flow cytometry (FACS, BD, USA). […]
(In general: In flow cytometry, cells or beads pass a laser one at a time.)

On to TNRTEVEG [SEQ ID NO: 1], for which the “expression of AQP3” value in assay [1] was “increased”. In assay [2], the “expression of SIRT-1” value was “increased”. Besides, the proliferation of fibroblasts entry in assay [3] is on record as “promoted”. Further, the “expression of CoI1a1” value in assay [4] was “increased”. The expression of fibronectin result in assay [5] was “increased”. Further, the expression of elastin result in assay [6] is given as “increased”. The “level of reactive oxygen species in keratinocytes increased by ultraviolet irradiation” value in assay [7] is reported as “reduced”.
